# Experimental data reported in patent US20230146455A1, “TREATMENT OF INFLAMMATORY DISEASES WITH PEPTIDES AND PHARMACEUTICAL COMPOSITIONS” (Yuyu Pharma, Inc., priority 2020, published 2023).
# Values joined by “and” are separate entries in the source; they are usually repeats but may differ in a detail not shown here. Equal values may be shown once. Where a SMILES comes first, the peptide text is derived from it. [ ]: non-standard residue; d: D form. Hyp = O=C(O)[C@@H]1C[C@@H](O)CN1
# Tested on: human PBMCs
# Assay: PBMC cell counts (total, live, viability; trypan blue, Countess) with and without LPS and test articles (Example 9)
# Type: cell-based
# Outline: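 Human PBMCs were pretreated 2 h with test articles (0.001–100 uM) or 0.5% DMSO vehicle, then given LPS at 5 ug/ml or no LPS, in triplicate. After 24 hr, total and live cells and viability were counted by 1:1 trypan blue staining on an automated counter.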
# [1] = PBMC + LPS(5 ug/ml) + compound 0.001 uM, 24 hr
# [2] = PBMC + LPS(5 ug/ml) + compound 0.01 uM, 24 hr
# [3] = PBMC + LPS(5 ug/ml) + compound 0.1 uM, 24 hr
# [4] = PBMC + LPS(5 ug/ml) + compound 1 uM, 24 hr
# [5] = PBMC + LPS(5 ug/ml) + compound 10 uM, 24 hr
# [6] = PBMC + LPS(5 ug/ml) + compound 100 uM, 24 hr
# [7] = PBMC + LPS(5 ug/ml) + test article 0.001 uM, Mean
# [8] = PBMC + LPS(5 ug/ml) + test article 0.001 uM, single replicates
# [9] = PBMC + LPS(5 ug/ml) + test article 0.01 uM, Mean
# [10] = PBMC + LPS(5 ug/ml) + test article 0.01 uM, single replicates
# [11] = PBMC + LPS(5 ug/ml) + test article 0.1 uM, Mean
# [12] = PBMC + LPS(5 ug/ml) + test article 0.1 uM, single replicates
# [13] = PBMC + LPS(5 ug/ml) + test article 1 uM, Mean
# [14] = PBMC + LPS(5 ug/ml) + test article 1 uM, single replicates
# [15] = PBMC + LPS(5 ug/ml) + test article 10 uM, Mean
# [16] = PBMC + LPS(5 ug/ml) + test article 10 uM, single replicates
# [17] = PBMC + LPS(5 ug/ml) + test article 100 uM, Mean
# [18] = PBMC + LPS(5 ug/ml) + test article 100 uM, single replicates
# [19] = PBMC + LPS(5 ug/ml), test article 0.001 uM, Mean
# [20] = PBMC + LPS(5 ug/ml), test article 0.001 uM, single replicates
# [21] = PBMC + LPS(5 ug/ml), test article 0.01 uM, Mean
# [22] = PBMC + LPS(5 ug/ml), test article 0.01 uM, single replicates
# [23] = PBMC + LPS(5 ug/ml), test article 0.1 uM, Mean
# [24] = PBMC + LPS(5 ug/ml), test article 0.1 uM, single replicates
# [25] = PBMC + LPS(5 ug/ml), test article 1 uM, Mean
# [26] = PBMC + LPS(5 ug/ml), test article 1 uM, single replicates
# [27] = PBMC + LPS(5 ug/ml), test article 10 uM, Mean
# [28] = PBMC + LPS(5 ug/ml), test article 10 uM, single replicates
smiles,measurement,setting,value
CC(C)C[C@H](NC(=O)CNC(=O)[C@H](CC(=O)O)NC(=O)[C@H](CCC(N)=O)NC(=O)CNC(=O)[C@@H]1C[C@@H](O)CN1)C(=O)N[C@@H](C)C(=O)NCC(=O)N1CCC[C@H]1C(=O)N[C@@H](CCCCN)C(=O)O [YY-101] (H-[Hyp]GQDGLAGPK-OH; N-terminus and C-terminus assumed),Live cell,[1],6.5 ± 0.4 10^5/ml
same,Total cell,[1],7.7 ± 0.6 10^5/ml
same,Live cell,[2],6.2 ± 0.1 10^5/ml
same,Total cell,[2],8.1 ± 0.6 10^5/ml
same,Live cell,[3],5.9 ± 0.3 10^5/ml
same,Total cell,[3],7.8 ± 0.8 10^5/ml
same,Live cell,[4],6.5 ± 0.3 10^5/ml
same,Total cell,[4],9.8 ± 0.6 10^5/ml
same,Live cell,[5],6.7 ± 0.5 10^5/ml
same,Total cell,[5],9.1 ± 1.1 10^5/ml
same,Live cell,[6],5.8 ± 0.4 10^5/ml
same,Total cell,[6],7.8 ± 1.0 10^5/ml
same,Live cell,[7],6.5 10^5/ml
same,Live cell (10^5/ml),[7],6.5 10^5/ml
same,"Live cell, Mean",[7],6.5 10^5/ml
same,Live cell,"PBMC + LPS(5 ug/ml) + test article 0.001 uM, individual replicates (1st, 2nd, 3rd)",5.7 10^5/ml and 7.1 10^5/ml and 6.6 10^5/ml
same,Live cell,[8],5.7 10^5/ml and 7.1 10^5/ml and 6.6 10^5/ml
same,Live cell (10^5/ml),[8],5.7 10^5/ml and 7.1 10^5/ml and 6.6 10^5/ml
same,Live cell,"PBMC + LPS(5 ug/ml) + test article 0.001 uM, single replicates (1st, 2nd, 3rd)",5.7 10^5/ml and 7.1 10^5/ml and 6.6 10^5/ml
same,Live cell,[9],6.2 10^5/ml
same,Live cell (10^5/ml),[9],6.2 10^5/ml
same,"Live cell, Mean",[9],6.2 10^5/ml
same,Live cell,"PBMC + LPS(5 ug/ml) + test article 0.01 uM, individual replicates (1st, 2nd, 3rd)",6.4 10^5/ml and 6.0 10^5/ml and 6.1 10^5/ml
same,Live cell,[10],6.4 10^5/ml and 6.0 10^5/ml and 6.1 10^5/ml
same,Live cell (10^5/ml),[10],6.4 10^5/ml and 6.0 10^5/ml and 6.1 10^5/ml
same,Live cell,"PBMC + LPS(5 ug/ml) + test article 0.01 uM, single replicates (1st, 2nd, 3rd)",6.4 10^5/ml and 6.0 10^5/ml and 6.1 10^5/ml
same,Live cell,[11],5.9 10^5/ml
same,Live cell (10^5/ml),[11],5.9 10^5/ml
same,"Live cell, Mean",[11],5.9 10^5/ml
same,Live cell,[12],6.2 10^5/ml (2×) and 5.2 10^5/ml
same,Live cell (10^5/ml),[12],6.2 10^5/ml (2×) and 5.2 10^5/ml
same,Live cell,"PBMC + LPS(5 ug/ml) + test article 0.1 uM, single replicates (1st, 2nd, 3rd)",6.2 10^5/ml (2×) and 5.2 10^5/ml
same,Live cell,[13],6.5 10^5/ml
same,Live cell (10^5/ml),[13],6.5 10^5/ml
same,"Live cell, Mean",[13],6.5 10^5/ml
same,Live cell,[14],6.3 10^5/ml and 7.1 10^5/ml and 6.2 10^5/ml
same,Live cell (10^5/ml),[14],6.3 10^5/ml and 7.1 10^5/ml and 6.2 10^5/ml
same,Live cell,"PBMC + LPS(5 ug/ml) + test article 1 uM, single replicates (1st, 2nd, 3rd)",6.3 10^5/ml and 7.1 10^5/ml and 6.2 10^5/ml
same,Live cell,[15],6.7 10^5/ml
same,Live cell (10^5/ml),[15],6.7 10^5/ml
same,"Live cell, Mean",[15],6.7 10^5/ml
same,Live cell,[16],6.0 10^5/ml and 6.4 10^5/ml and 7.6 10^5/ml
same,Live cell (10^5/ml),[16],6.0 10^5/ml and 6.4 10^5/ml and 7.6 10^5/ml
same,Live cell,"PBMC + LPS(5 ug/ml) + test article 10 uM, single replicates (1st, 2nd, 3rd)",6.0 10^5/ml and 6.4 10^5/ml and 7.6 10^5/ml
same,Live cell,[17],5.8 10^5/ml
same,Live cell (10^5/ml),[17],5.8 10^5/ml
same,"Live cell, Mean",[17],5.8 10^5/ml
same,Live cell,[18],6.3 10^5/ml and 6.2 10^5/ml and 5.0 10^5/ml
same,Live cell (10^5/ml),[18],6.3 10^5/ml and 6.2 10^5/ml and 5.0 10^5/ml
same,Live cell,"PBMC + LPS(5 ug/ml) + test article 100 uM, single replicates (1st, 2nd, 3rd)",6.3 10^5/ml and 6.2 10^5/ml and 5.0 10^5/ml
same,Live cell,"PBMC + LPS(5 ug/ml), 0.001 uM, Mean",6.5 10^5/ml
same,Live cell,"PBMC + LPS(5 ug/ml), 0.001 uM, single replicates",5.7 10^5/ml and 7.1 10^5/ml and 6.6 10^5/ml
same,Live cell,"PBMC + LPS(5 ug/ml), 0.01 uM, Mean",6.2 10^5/ml
same,Live cell,"PBMC + LPS(5 ug/ml), 0.01 uM, single replicates",6.4 10^5/ml and 6.0 10^5/ml and 6.1 10^5/ml
same,Live cell,"PBMC + LPS(5 ug/ml), 0.1 uM, Mean",5.9 10^5/ml
same,Live cell,"PBMC + LPS(5 ug/ml), 0.1 uM, single replicates",6.2 10^5/ml (2×) and 5.2 10^5/ml
same,Live cell,"PBMC + LPS(5 ug/ml), 1 uM, Mean",6.5 10^5/ml
same,Live cell,"PBMC + LPS(5 ug/ml), 1 uM, single replicates",6.3 10^5/ml and 7.1 10^5/ml and 6.2 10^5/ml
same,Live cell,"PBMC + LPS(5 ug/ml), 10 uM, Mean",6.7 10^5/ml
same,Live cell,"PBMC + LPS(5 ug/ml), 10 uM, single replicates",6.0 10^5/ml and 6.4 10^5/ml and 7.6 10^5/ml
same,Live cell,"PBMC + LPS(5 ug/ml), 100 uM, Mean",5.8 10^5/ml
same,Live cell,"PBMC + LPS(5 ug/ml), 100 uM, single replicates",6.3 10^5/ml and 6.2 10^5/ml and 5.0 10^5/ml
same,Live cell,[19],6.5 10^5/ml
same,Total cell count,[19],7.7 10^5/ml
same,Live cell,[20],5.7 10^5/ml and 7.1 10^5/ml and 6.6 10^5/ml
same,Total cell count,[20],6.7 10^5/ml and 8.8 10^5/ml and 7.5 10^5/ml
same,Viability,[20],84.0% and 80.0% and 89.0%
same,Live cell,[21],6.2 10^5/ml
same,Total cell count,[21],8.1 10^5/ml
same,Live cell,[22],6.4 10^5/ml and 6.0 10^5/ml and 6.1 10^5/ml
same,Total cell count,[22],9.2 10^5/ml and 8.1 10^5/ml and 7.0 10^5/ml
same,Viability,[22],70.0% and 75.0% and 87.0%
same,Live cell,[23],5.9 10^5/ml
same,Total cell count,[23],7.8 10^5/ml
same,Live cell,[24],6.2 10^5/ml (2×) and 5.2 10^5/ml
same,Total cell count,[24],9.3 10^5/ml and 6.7 10^5/ml and 7.5 10^5/ml
same,Viability,[24],67.0% and 77.0% and 83.0%
same,Live cell,[25],6.5 10^5/ml
same,Total cell count,[25],9.8 10^5/ml
same,Live cell,[26],6.3 10^5/ml and 7.1 10^5/ml and 6.2 10^5/ml
same,Total cell count,[26],8.8 10^5/ml and 9.7 10^5/ml and 11.0 10^5/ml
same,Viability,[26],72.0% and 73.0% and 55.0%
same,Live cell,[27],6.7 10^5/ml
same,Total cell count,[27],9.1 10^5/ml
same,Live cell,[28],6.0 10^5/ml and 6.4 10^5/ml and 7.6 10^5/ml
same,Total cell count,[28],7.3 10^5/ml and 9.0 10^5/ml and 11.0 10^5/ml
same,Viability,[28],83.0% and 71.0% and 67.0%
